Among the test systems are M14; IGROV-1; SK-MEL-2; TK-10; UO-31; HOP-92; OVCAR-8; COLO 205; NCI-H226; SF-295; SN12C; OVCAR-5; SW-620; HT-29; OVCAR-3; SNB-19; 786-0; KM12; RXF 393.
What all share (experiment): NCI anticancer screen, dose series, 48 h

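A five-concentration, 48-hour dose response in 96-well plates underlies each endpoint, interpolated linearly between surrounding concentrations. GI50 is the concentration that inhibits growth by half.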 The source made the active and inactive calls. No stated cut-off is given here; in the data, active = GI50 up to about 1.1 µM and inactive = higher. Where a SMILES comes first, the peptide text is derived from it. The star is where a group is joined. Boc = CC(C)(C)OC(=O)*

As to `COP(C)(=O)/C(Cc1ccccc1)=N\O` (centres undefined), the GI50 with M14, in the assay on IGROV-1, with SK-MEL-2, with TK-10, with UO-31 and in the assay with HOP-92 was > 100 µM (inactive) in each case. In addition, the GI50 with OVCAR-8, with COLO 205, with NCI-H226, with SF-295, in the assay on SN12C and with OVCAR-5 was > 100 µM (inactive) throughout. Besides, the GI50 in the assay on SW-620, in the assay on HT-29, in the assay with OVCAR-3 and in the assay on SNB-19 was > 100 µM (inactive) each time.
For the compound `COc1ccc2c(c1)OCCC1=C2SCC2(C)CCN=C12` (centres undefined), the GI50 in the assay with M14, in the assay with IGROV-1, with 786-0, with TK-10, in the assay on OVCAR-8 and in the assay on COLO 205 was > 100 µM (inactive) in each case. Further, the GI50 with NCI-H226 was 35.6 µM (inactive); in the assay on SF-295, > 100 µM (inactive); in the assay on SN12C it was > 100 µM (inactive); with SW-620, > 100 µM (inactive); with HT-29, 55.2 µM (inactive); with OVCAR-3, 72.6 µM (inactive). In addition, the GI50 in the assay on SNB-19, with KM12 and with RXF 393 was > 100 µM (inactive) in each case.
As for `CCC1=CCN(c2ccc(C)cc2)OC1c1ccc(OC)cc1` (centres undefined), the GI50 in the assay on M14 was 52.6 µM (inactive); with IGROV-1 it was > 100 µM (inactive); in the assay on SK-MEL-2, 32.3 µM (inactive); in the assay on 786-0 it was > 100 µM (inactive); in the assay with TK-10, > 100 µM (inactive); in the assay with UO-31 it was 90.6 µM (inactive). For the same compound, the GI50 in the assay with OVCAR-8 is > 100 µM (inactive); in the assay with COLO 205, > 100 µM (inactive); in the assay with NCI-H226 it was > 100 µM (inactive); in the assay with SF-295, 92.7 µM (inactive); in the assay with SN12C, > 100 µM (inactive); in the assay on OVCAR-5, > 100 µM (inactive). For the same compound, the GI50 is > 100 µM (inactive) in the assay on SW-620; 33.8 µM (inactive) in the assay with HT-29; > 100 µM (inactive) with OVCAR-3; > 100 µM (inactive) in the assay on SNB-19; > 100 µM (inactive) with KM12; 69.7 µM (inactive) in the assay on RXF 393.
As for `Cc1ccc(S(=O)(=O)NC(=O)NC(CCCCNC(=N)N)C(=O)O)cc1` (centres undefined), the GI50 with M14, in the assay on IGROV-1, in the assay on SK-MEL-2, in the assay on 786-0, with TK-10 and with UO-31 was > 100 µM (inactive) in each case. Besides, the GI50 in the assay on HOP-92, with OVCAR-8, in the assay on COLO 205, in the assay on SF-295, with SN12C and with SW-620 was > 100 µM (inactive) in each case. For the same compound, the GI50 in the assay with SNB-19, in the assay on KM12 and in the assay with RXF 393 was > 100 µM (inactive) each time.
For the compound `COc1cccc(/C=C2\C(=O)N(C(=O)Cc3ccccc3)N=C2C)c1`, the GI50 in the assay with M14, in the assay on SK-MEL-2, with 786-0, in the assay with TK-10, with UO-31 and in the assay on OVCAR-8 was > 100 µM (inactive) throughout. The GI50 with COLO 205, with NCI-H226, in the assay on SF-295, in the assay with SN12C, in the assay on OVCAR-5 and with SW-620 was > 100 µM (inactive) throughout. The GI50 in the assay with HT-29, in the assay on OVCAR-3, in the assay on SNB-19 and in the assay on KM12 was > 100 µM (inactive) each time.
As to `O=C1C(Cl)=C(N2CCSCC2)C(=O)c2c(O)ccc(O)c21`, the GI50 is 0.33 µM (active) in the assay on M14; 0.776 µM (active) with IGROV-1; 0.204 µM (active) with SK-MEL-2; 0.1 µM (active) with 786-0; 0.465 µM (active) with TK-10; 0.569 µM (active) with UO-31. The GI50 in the assay with HOP-92 is 1.02 µM (active); in the assay with COLO 205, 0.1 µM (active); in the assay on NCI-H226 it was 0.347 µM (active); in the assay on SF-295, 0.1 µM (active); in the assay with SW-620 it was 0.258 µM (active); in the assay on HT-29 it was 0.366 µM (active). Also, the GI50 was 0.38 µM (active) in the assay on KM12 and 0.243 µM (active) in the assay on RXF 393.
For `CN1CN(c2ccccc2)C2(CCN(CCCC(=O)c3cccs3)CC2)C1=O`, the GI50 in the assay with M14 was 95.5 µM (inactive); in the assay with IGROV-1, 41.3 µM (inactive); in the assay on 786-0, 35.6 µM (inactive); with TK-10 it was 27.7 µM (inactive); in the assay on UO-31, 33 µM (inactive); in the assay on OVCAR-8 it was 55.8 µM (inactive). The GI50 in the assay on COLO 205 was 17.3 µM (inactive); with NCI-H226, 34.5 µM (inactive); in the assay on SF-295, 33 µM (inactive); in the assay with SN12C it was 48.4 µM (inactive); in the assay with OVCAR-5, 35.9 µM (inactive); with SW-620, 42.2 µM (inactive). Moreover, the GI50 in the assay with HT-29 was 21.2 µM (inactive); in the assay on OVCAR-3, 37.2 µM (inactive); in the assay on SNB-19 it was 47.5 µM (inactive); with KM12, 75.7 µM (inactive); with RXF 393, > 100 µM (inactive).
`COC(=O)[C@H](Cc1ccc(O)cc1)NC(=O)[C@H](Cc1ccc(O)cc1)NC(=O)OC(C)(C)C` (Boc-Tyr-Tyr-OMe): the GI50 is > 100 µM (inactive) with M14; 56.6 µM (inactive) in the assay on IGROV-1; > 100 µM (inactive) with 786-0; > 100 µM (inactive) in the assay on TK-10; > 100 µM (inactive) with UO-31; 66.4 µM (inactive) in the assay on OVCAR-8. The GI50 in the assay with COLO 205 was 37.2 µM (inactive); in the assay with NCI-H226, > 100 µM (inactive); in the assay with SF-295, > 100 µM (inactive); in the assay with OVCAR-5, > 100 µM (inactive); in the assay on HT-29 it was > 100 µM (inactive); with OVCAR-3 it was 72.3 µM (inactive). Moreover, the GI50 is > 100 µM (inactive) in the assay on SNB-19, > 100 µM (inactive) in the assay with KM12 and 49.7 µM (inactive) with RXF 393.
Turning to `C=C1C(=O)O[C@@H]2C[C@@]3(C)[C@H](O)CCC(=C)[C@@H]3C[C@H]12` [ASPERILIN], the GI50 is 3.31 µM (inactive) with M14; 20.5 µM (inactive) with IGROV-1; 11.6 µM (inactive) in the assay on SK-MEL-2; 9.66 µM (inactive) in the assay on 786-0; 12.5 µM (inactive) with TK-10; 10.8 µM (inactive) in the assay with UO-31. The GI50 with HOP-92 is 5.13 µM (inactive); with OVCAR-8, 7.24 µM (inactive); in the assay on COLO 205 it was 2.72 µM (inactive); in the assay on NCI-H226 it was 4.29 µM (inactive); in the assay on SF-295, 14.1 µM (inactive); in the assay with SN12C it was 5.94 µM (inactive). For the same compound, the GI50 with OVCAR-5 was 6.12 µM (inactive); with SW-620, 3.44 µM (inactive); in the assay on HT-29, 3.6 µM (inactive); in the assay on OVCAR-3, 8.15 µM (inactive); with SNB-19, 18.7 µM (inactive); in the assay on KM12, 3.49 µM (inactive).

For the origin of these results see ChEMBL document CHEMBL1201862, “PubChem BioAssay data set” (2004).
